Experimental data published in ChEMBL document CHEMBL5143623, “Discovery of novel spiro compound as RAF kinase inhibitor with in vitro potency against KRAS mutant cancer” (Bioorg Med Chem Lett, 2022).
In brackets after ≈: the same amount, converted by molar mass. Each block holds one compound with its values, some of them ahead of it. Activity calls are given as the source filed them. The rule behind the calls is not given here.

Assays:
[1] = tested on: NCI-H358; test: Growth inhibition of human H358 cells expressing KRAS […] mutant measured after 3 days by Cell-titer Glo assay; format: functional; conditions: NCI-H358, 72 h, time 3 day
[2] = target: RAF proto-oncogene serine/threonine-protein kinase (Homo sapiens, UniProt P04049); test: Inhibition of human recombinant cRAF measured after 1 hr by TR-FRET assay
[3] = Half life in rat at 2 mg/kg, po by LC-MS/MS analysis; format: ADME, organism-based; conditions: in vivo
[4] = Stability of compound in human liver microsomes assessed as half life; format: ADME, Microsome
[5] = Volume of distribution in rat at 1 mg/kg, iv by LC-MS/MS analysis; format: ADME, organism-based; conditions: in vivo
[6] = target: Cytochrome P450 2C19 (Homo sapiens, UniProt P33261); test: Inhibition of CYP2C19 in human liver microsomes; format: ADME, Microsome
[7] = target: Serine/threonine-protein kinase B-raf (Homo sapiens, UniProt P15056); test: Inhibition of human recombinant wild-type bRAF measured after 1 hr by TR-FRET assay
[8] = Stability of compound in mouse liver microsomes assessed as half life; format: ADME, Microsome
[9] = target: Voltage-gated inwardly rectifying potassium channel KCNH2 (Homo sapiens, UniProt Q12809); test: Inhibition of hERG; format: toxicity
[10] = AUC(0 to t) in mouse at 1 mg/kg, iv by LC-MS/MS analysis; format: ADME, organism-based; parameters: dose 1 mg/kg, route iv; conditions: in vivo
[11] = target: T1, Cytochrome P450 3A4 (Homo sapiens, UniProt P08684); test: Inhibition of CYP3A4 in human liver microsomes using testosterone as substrate; parameters: species or system Microsome
[12] = Solubility of compound in PBS at pH 7.4; format: physicochemical
[13] = MRT (0 to infinity) in rat at 2 mg/kg, po by LC-MS/MS analysis; format: ADME, organism-based; conditions: in vivo
[14] = Volume of distribution in mouse at 1 mg/kg, iv by LC-MS/MS analysis; format: ADME, organism-based; conditions: in vivo
[15] = target: Serine/threonine-protein kinase B-raf (Homo sapiens, UniProt P15056, V600E); test: Inhibition of human recombinant bRAF […] mutant measured after 1 hr by TR-FRET assay
[16] = target: Cytochrome P450 2D6 (Homo sapiens, UniProt P10635); test: Inhibition of CYP2D6 in human liver microsomes; parameters: species or system Microsome
[17] = Tmax in mouse at 2 mg/kg, po by LC-MS/MS analysis; format: ADME, organism-based; conditions: in vivo
[18] = target: T2, Cytochrome P450 1A2 (Homo sapiens, UniProt P05177); test: Inhibition of CYP1A2 in human liver microsomes; format: ADME, Microsome
T2 sequence (P05177 whole entry): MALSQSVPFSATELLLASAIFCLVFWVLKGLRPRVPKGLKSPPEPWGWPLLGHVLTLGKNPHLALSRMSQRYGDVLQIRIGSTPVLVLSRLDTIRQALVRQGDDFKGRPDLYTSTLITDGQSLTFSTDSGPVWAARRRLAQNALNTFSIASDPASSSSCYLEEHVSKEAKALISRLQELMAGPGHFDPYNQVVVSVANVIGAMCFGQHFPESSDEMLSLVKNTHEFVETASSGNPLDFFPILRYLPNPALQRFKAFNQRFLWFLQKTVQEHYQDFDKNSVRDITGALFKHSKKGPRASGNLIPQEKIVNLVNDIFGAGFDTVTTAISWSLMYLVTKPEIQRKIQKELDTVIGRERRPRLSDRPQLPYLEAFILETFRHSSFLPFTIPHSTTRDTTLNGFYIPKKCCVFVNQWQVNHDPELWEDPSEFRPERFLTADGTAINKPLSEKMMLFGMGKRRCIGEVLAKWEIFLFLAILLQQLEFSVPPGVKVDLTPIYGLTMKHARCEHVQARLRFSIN

[19] = Cmax in mouse at 2 mg/kg, po by LC-MS/MS analysis; format: ADME, organism-based; parameters: dose 2 mg/kg, route po; conditions: in vivo
[20] = Stability of compound in Dog liver microsomes assessed as half life; format: ADME, Canis lupus familiaris, Microsome
[21] = Cmax in rat at 2 mg/kg, po by LC-MS/MS analysis; format: ADME, organism-based; parameters: dose 2 mg/kg, route po; conditions: in vivo
[22] = target: T1, Cytochrome P450 3A4; test: Inhibition of CYP3A4 in human liver microsomes using midazolam as substrate; parameters: species or system Microsome
[23] = Oral bioavailability in mouse at 2 mg/kg by LC-MS/MS analysis; format: ADME, organism-based; conditions: in vivo
[24] = Half life in mouse at 1 mg/kg, iv by LC-MS/MS analysis; format: ADME, organism-based; conditions: in vivo
[25] = Clearance in rat at 1 mg/kg, iv by LC-MS/MS analysis; format: ADME, organism-based; conditions: in vivo
[26] = Half life in rat at 1 mg/kg, iv by LC-MS/MS analysis; format: ADME, organism-based; conditions: in vivo
[27] = Tmax in rat at 2 mg/kg, po by LC-MS/MS analysis; format: ADME, organism-based; conditions: in vivo
[28] = tested on: Calu-6; test: Growth inhibition of human Calu-6 cells expressing KRAS Q61K mutant measured after 3 days by Cell-titer Glo assay; format: functional; conditions: Calu-6, 72 h, time 3 day
[29] = AUC(0 to t) in rat at 2 mg/kg, po by LC-MS/MS analysis; format: ADME, organism-based; parameters: dose 2 mg/kg, route po; conditions: in vivo
[30] = AUC(0 to t) in mouse at 2 mg/kg, po by LC-MS/MS analysis; format: ADME, organism-based; parameters: dose 2 mg/kg, route po; conditions: in vivo
[31] = Clearance in mouse at 1 mg/kg, iv by LC-MS/MS analysis; format: ADME, organism-based; conditions: in vivo
[32] = MRT (0 to infinity) in mouse at 2 mg/kg, po by LC-MS/MS analysis; format: ADME, organism-based; conditions: in vivo
[33] = Hepatic clearance in rat liver microsomes; format: ADME, Microsome
[34] = AUC(0 to t) in rat at 1 mg/kg, iv by LC-MS/MS analysis; format: ADME, organism-based; parameters: dose 1 mg/kg, route iv; conditions: in vivo
[35] = target: Cytochrome P450 2C9 (Homo sapiens, UniProt P11712); test: Inhibition of CYP2C9 in human liver microsomes; format: ADME, Microsome
[36] = tested on: A-375; test: Growth inhibition of human A375 cells expressing bRaf V600E mutant measured after 3 days by Cell-titer Glo assay; format: functional; conditions: A-375, 72 h, time 3 day
[37] = Half life in mouse at 2 mg/kg, po by LC-MS/MS analysis; format: ADME, organism-based; conditions: in vivo
[38] = Permeability of compound by PAMPA assay; format: ADME; conditions: read-out: permeability
[39] = Stability of compound in rat liver microsomes assessed as half life; format: ADME, Microsome
[40] = tested on: NCI-H358; test: Effect on Erk signalling pathway in human H358 cells assessed as increase in Erk phosphorylation by HTRF assay; format: functional, cell-based
[41] = Hepatic clearance in human liver microsomes; format: ADME, Microsome
[42] = Oral bioavailability in rat at 2 mg/kg by LC-MS/MS analysis; format: ADME, organism-based; conditions: in vivo
[43] = MRT (0 to infinity) in rat at 1 mg/kg, iv by LC-MS/MS analysis; format: ADME, organism-based; conditions: in vivo
[44] = Hepatic clearance in dog liver microsomes; format: ADME, Canis lupus familiaris, Microsome
[45] = Hepatic clearance in mouse liver microsomes; format: ADME, Microsome
[46] = MRT (0 to infinity) in mouse at 1 mg/kg, iv by LC-MS/MS analysis; format: ADME, organism-based; conditions: in vivo

T1 sequence (P08684 whole entry): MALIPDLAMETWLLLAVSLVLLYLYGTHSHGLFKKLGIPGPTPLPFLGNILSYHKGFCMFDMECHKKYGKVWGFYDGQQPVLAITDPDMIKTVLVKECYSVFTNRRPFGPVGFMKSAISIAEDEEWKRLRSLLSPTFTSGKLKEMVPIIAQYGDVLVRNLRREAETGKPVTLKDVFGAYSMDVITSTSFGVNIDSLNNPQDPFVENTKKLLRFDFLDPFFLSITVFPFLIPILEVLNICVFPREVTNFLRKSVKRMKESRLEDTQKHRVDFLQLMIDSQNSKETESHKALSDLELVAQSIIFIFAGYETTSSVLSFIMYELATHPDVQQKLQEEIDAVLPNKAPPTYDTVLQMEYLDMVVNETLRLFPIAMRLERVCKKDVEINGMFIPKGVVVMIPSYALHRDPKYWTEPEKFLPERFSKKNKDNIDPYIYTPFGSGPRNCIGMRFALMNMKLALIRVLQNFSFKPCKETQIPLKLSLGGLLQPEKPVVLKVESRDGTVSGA
RAF proto-oncogene serine/threonine-protein kinase, sequence (P04049 whole entry): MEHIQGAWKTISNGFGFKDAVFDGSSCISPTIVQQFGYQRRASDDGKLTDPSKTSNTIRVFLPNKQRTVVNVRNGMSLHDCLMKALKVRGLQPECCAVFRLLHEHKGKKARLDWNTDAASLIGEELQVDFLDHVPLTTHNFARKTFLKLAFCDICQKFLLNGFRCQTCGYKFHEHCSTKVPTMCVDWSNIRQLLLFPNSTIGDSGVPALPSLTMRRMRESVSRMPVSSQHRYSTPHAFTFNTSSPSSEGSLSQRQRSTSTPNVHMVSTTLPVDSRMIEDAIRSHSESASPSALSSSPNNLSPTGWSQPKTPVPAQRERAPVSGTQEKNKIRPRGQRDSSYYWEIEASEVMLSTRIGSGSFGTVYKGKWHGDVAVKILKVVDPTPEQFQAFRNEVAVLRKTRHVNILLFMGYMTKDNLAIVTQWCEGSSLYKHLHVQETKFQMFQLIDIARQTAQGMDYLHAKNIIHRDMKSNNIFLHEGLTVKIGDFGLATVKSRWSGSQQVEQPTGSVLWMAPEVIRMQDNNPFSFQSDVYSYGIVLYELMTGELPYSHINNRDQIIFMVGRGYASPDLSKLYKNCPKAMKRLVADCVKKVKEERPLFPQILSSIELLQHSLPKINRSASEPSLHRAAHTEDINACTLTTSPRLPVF
Cytochrome P450 2C9, sequence (P11712 whole entry): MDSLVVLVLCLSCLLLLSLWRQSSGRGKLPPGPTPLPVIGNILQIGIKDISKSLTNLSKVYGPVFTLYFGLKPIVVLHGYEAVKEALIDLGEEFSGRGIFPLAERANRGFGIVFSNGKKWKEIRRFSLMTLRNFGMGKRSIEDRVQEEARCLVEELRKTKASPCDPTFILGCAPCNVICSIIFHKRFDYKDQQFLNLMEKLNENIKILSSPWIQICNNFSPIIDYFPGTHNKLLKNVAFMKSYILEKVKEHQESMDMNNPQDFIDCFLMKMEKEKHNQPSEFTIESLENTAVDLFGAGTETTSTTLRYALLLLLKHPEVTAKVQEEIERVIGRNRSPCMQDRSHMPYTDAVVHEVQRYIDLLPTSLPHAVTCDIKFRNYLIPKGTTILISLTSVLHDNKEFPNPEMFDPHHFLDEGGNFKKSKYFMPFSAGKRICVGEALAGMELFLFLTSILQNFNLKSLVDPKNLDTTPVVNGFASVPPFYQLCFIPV
Voltage-gated inwardly rectifying potassium channel KCNH2, sequence (Q12809 whole entry): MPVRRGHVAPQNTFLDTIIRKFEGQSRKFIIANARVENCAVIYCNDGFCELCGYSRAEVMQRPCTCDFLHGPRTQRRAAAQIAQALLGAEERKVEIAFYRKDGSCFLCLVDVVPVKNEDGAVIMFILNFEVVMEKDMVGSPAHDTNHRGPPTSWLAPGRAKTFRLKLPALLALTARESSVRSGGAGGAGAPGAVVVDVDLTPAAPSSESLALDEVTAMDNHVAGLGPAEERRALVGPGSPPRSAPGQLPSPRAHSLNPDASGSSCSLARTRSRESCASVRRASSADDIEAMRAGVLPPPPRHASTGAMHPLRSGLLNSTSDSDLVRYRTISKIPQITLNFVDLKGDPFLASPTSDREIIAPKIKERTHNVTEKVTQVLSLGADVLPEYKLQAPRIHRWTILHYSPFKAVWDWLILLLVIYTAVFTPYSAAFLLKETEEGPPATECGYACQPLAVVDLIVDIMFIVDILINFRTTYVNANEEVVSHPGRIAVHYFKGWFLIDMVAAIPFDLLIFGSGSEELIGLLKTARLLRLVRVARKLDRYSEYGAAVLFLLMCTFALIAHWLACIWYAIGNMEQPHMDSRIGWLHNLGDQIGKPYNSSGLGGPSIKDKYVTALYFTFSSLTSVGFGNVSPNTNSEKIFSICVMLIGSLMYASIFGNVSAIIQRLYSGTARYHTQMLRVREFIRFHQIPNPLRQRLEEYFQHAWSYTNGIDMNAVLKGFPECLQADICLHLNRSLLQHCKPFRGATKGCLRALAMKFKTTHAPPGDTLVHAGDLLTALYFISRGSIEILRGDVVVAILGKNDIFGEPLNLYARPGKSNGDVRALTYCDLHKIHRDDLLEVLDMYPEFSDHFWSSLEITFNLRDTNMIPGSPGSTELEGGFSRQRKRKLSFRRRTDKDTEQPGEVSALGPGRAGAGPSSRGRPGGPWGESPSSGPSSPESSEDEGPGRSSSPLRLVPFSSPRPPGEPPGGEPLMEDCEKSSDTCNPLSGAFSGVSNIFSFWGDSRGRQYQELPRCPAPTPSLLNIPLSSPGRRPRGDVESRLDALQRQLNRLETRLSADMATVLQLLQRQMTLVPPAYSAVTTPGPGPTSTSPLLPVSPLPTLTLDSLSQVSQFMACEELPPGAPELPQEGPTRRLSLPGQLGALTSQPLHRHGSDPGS
Cytochrome P450 2D6, sequence (P10635 whole entry): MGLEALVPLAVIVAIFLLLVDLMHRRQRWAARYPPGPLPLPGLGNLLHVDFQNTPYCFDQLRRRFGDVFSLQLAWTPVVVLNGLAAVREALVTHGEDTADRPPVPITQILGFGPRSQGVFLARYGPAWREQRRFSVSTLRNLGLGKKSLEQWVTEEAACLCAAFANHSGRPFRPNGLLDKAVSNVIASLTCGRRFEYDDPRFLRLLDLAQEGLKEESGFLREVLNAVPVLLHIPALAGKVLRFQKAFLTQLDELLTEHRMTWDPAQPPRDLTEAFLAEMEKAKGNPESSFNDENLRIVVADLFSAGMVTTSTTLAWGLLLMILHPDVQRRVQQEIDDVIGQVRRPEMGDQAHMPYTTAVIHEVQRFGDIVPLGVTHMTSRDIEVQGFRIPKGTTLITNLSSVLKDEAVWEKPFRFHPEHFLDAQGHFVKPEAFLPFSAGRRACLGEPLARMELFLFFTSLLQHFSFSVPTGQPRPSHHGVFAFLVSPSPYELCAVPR
Cytochrome P450 2C19, sequence (P33261 whole entry): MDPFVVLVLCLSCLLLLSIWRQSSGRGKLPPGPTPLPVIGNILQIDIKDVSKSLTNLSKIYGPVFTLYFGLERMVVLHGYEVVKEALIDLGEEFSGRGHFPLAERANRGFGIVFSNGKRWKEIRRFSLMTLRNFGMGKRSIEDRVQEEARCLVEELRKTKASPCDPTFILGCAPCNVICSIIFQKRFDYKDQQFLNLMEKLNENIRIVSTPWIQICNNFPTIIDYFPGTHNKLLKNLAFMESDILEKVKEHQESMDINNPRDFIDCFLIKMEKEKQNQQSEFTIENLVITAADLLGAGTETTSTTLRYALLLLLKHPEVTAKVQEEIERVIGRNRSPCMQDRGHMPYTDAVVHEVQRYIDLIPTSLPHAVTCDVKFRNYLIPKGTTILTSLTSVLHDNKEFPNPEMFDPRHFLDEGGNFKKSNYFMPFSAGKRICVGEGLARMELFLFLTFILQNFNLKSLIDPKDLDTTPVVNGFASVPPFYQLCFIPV
Serine/threonine-protein kinase B-raf (Homo sapiens, UniProt P15056), sequence (P15056 whole entry): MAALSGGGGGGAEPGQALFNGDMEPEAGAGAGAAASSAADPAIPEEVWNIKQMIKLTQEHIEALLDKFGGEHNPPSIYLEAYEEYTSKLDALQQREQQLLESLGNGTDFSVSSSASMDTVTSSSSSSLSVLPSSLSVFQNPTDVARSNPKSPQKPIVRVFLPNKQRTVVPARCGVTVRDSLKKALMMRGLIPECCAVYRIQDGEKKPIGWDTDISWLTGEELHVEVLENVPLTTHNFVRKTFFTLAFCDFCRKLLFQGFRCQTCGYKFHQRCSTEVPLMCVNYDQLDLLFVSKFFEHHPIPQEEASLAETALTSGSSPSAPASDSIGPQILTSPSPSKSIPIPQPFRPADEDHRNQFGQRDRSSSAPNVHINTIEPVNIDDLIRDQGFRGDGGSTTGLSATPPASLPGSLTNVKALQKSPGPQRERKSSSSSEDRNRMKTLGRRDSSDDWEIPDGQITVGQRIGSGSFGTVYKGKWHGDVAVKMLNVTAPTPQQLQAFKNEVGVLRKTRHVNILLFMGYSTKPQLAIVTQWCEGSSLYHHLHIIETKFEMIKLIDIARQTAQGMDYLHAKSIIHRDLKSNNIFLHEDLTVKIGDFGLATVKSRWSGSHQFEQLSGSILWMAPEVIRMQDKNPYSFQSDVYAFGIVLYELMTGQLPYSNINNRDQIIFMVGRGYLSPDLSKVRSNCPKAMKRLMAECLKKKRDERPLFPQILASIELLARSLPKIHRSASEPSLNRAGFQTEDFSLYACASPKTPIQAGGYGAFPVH

- GI50 [1]: 14 µM
- IC50 [2]: 0.029 µM
SMILES: Cc1ccc(NC(=O)c2ccnc(C(F)(F)F)c2)cc1-c1ccc2c(c1)OC1(CCOCC1)CC2NCCO (stereo unspecified)

- GI50 [1]: 8.7 µM
- IC50 [2]: 0.028 µM
SMILES: Cc1ccc(NC(=O)c2ccnc(C(F)(F)F)c2)cc1-c1cnc2c(c1)OC1(CCOCC1)NC2=O

- half-life [3]: 4.57 h
- half-life [4]: 0.485 h
- Vd [5]: 5.59 L/kg
- IC50 [6]: > 30 µM
- IC50 [7]: 0.036 µM
- half-life [8]: 1.02 h
- AUC(0-t) [10]: 688 ng·h/mL
- IC50 [11]: > 30 µM
- solubility [12]: 0.7 µM (≈ 0.348 µg/mL)
- MRT inf [13]: 8.14 h
- GI50 [1]: 3.4 µM
- Vd [14]: 5.87 L/kg
- IC50 [15]: 0.0294 µM
- IC50 [16]: > 30 µM
- IC50 [2]: 0.0038 µM
- Tmax [17]: 1 h
- IC50 [18]: > 30 µM
- Cmax [19]: 1.48 ng/mL
- half-life [20]: > 2.32 h
- Cmax [21]: 52.1 ng/mL
- IC50 [22]: > 30 µM
- bioavailability [23]: 40%
- half-life [24]: 2.81 h
- clearance [25]: 15 mL/min/kg
- half-life [26]: 4.39 h
- Tmax [27]: 4 h
- GI50 [28]: 3.9 µM
- AUC(0-t) [29]: 517 ng·h/mL
- AUCt [30]: 546 ng·h/mL
- clearance [31]: 24.2 mL/min/kg
- MRT inf [32]: 3.59 h
- CLH [33]: 32.7 µL/min/g
- AUC(0-t) [34]: 1120 ng·h/mL
- IC50 [35]: > 30 µM
- GI50 [36]: 2.9 µM
- t1/2 [37]: 1.91 h
- Papp [38]: < 0.018 ×10⁻⁶ cm/s
- half-life [39]: 0.783 h
- CLH [41]: 13.7 µL/min/g
- bioavailability [42]: 24%
- MRT inf [43]: 4.35 h
- CLH [44]: < 9.6 µL/min/g
- CLH [45]: 45 µL/min/g
- MRT inf [46]: 1.74 h
SMILES: Cc1ccc(NC(=O)c2ccnc(C(F)(F)F)c2)cc1-c1ccc2c(c1)OC1(CCOCC1)NC2=O
- IC50 [9]: 5.9 µM
- Activity [40]: Active

- GI50 [1]: 10 µM
- IC50 [2]: 0.014 µM
SMILES: Cc1ccc(NC(=O)c2ccnc(C(F)(F)F)c2)cc1-c1ccc2c(c1)OC1(CCOCC1)C(=O)N2

- GI50 [1]: 13 µM
- IC50 [2]: 0.036 µM
SMILES: Cc1ccc(NC(=O)c2ccnc(C(F)(F)F)c2)cc1-c1ccc2c(c1)OC1(CCOCC1)CC2

- GI50 [1]: 6.6 µM
- IC50 [2]: 0.021 µM
SMILES: Cc1ccc(NC(=O)c2ccnc(C(F)(F)F)c2)cc1-c1ccc2c(c1)OC1(CCOCC1)CC2N (stereo unspecified)

- GI50 [1]: 9.1 µM
- IC50 [2]: 0.019 µM
SMILES: Cc1ccc(NC(=O)c2ccnc(C(F)(F)F)c2)cc1-c1ccc2c(c1)OC1(CCOCC1)CC2O (stereo unspecified)

- half-life [4]: 0.135 h
- IC50 [6]: > 30 µM
- half-life [8]: 0.468 h
- IC50 [11]: > 30 µM
- solubility [12]: 0.46 µM (≈ 0.228 µg/mL)
- GI50 [1]: 4.2 µM
- IC50 [16]: > 30 µM
- IC50 [2]: 0.015 µM
- IC50 [18]: > 30 µM
- half-life [20]: 0.54 h
- IC50 [22]: > 30 µM
- CLH [33]: 52.2 µL/min/g
- IC50 [35]: > 30 µM
- half-life [39]: 0.308 h
- CLH [41]: 18.3 µL/min/g
- CLH [44]: 20.6 µL/min/g
- CLH [45]: 61.6 µL/min/g
SMILES: Cc1ccc(NC(=O)c2ccnc(C(F)(F)F)c2)cc1-c1ccc2c(c1)OC1(CCOCC1)CC2=O
- IC50 [9]: 3.4 µM
- Activity [40]: Active

- GI50 [1]: 3 µM
SMILES: Cc1ccc(NC(=O)c2ccnc(C(F)(F)F)c2)cc1-c1cc(OCCO)nc(N2CCOCC2)c1 [NAPORAFENIB]
- Activity [40]: Active

- GI50 [1]: 8.3 µM
- IC50 [2]: 0.0043 µM
SMILES: Cc1ccc(NC(=O)c2ccnc(C(F)(F)F)c2)cc1-c1ccc2c(c1)OC1(CCOC1)NC2=O (stereo unspecified)
